Experiments:
Assay type in all cases: cell-based
SIRT4 KO MEFs = assay: Proliferation of SIRT4 KO MEFs; conditions: SIRT4 KO versus WT MEFs cultured with BPTES
Protocol: To test whether enhanced glutamine metabolism drove the proliferative phenotype of KO cells, cells were cultured with BPTES and proliferation was measured.

HeLa cells = assay: Proliferation of control and SIRT4-expressing HeLa cells; conditions: media containing BPTES
[1] = tested on: mitochondrial glutaminolysis; assay: Repression of glutamine uptake by UV in the presence of inhibitors of mitochondrial glutaminolysis; conditions: in the presence of the inhibitor
Protocol: (§1) As described above, SIRT4 represses glutamine-derived mitochondrial anaplerosis. This node was investigated further using a pharmacological and genetic approach. GLS is the first required enzyme for mitochondrial glutamine metabolism, and catalyzes the hydrolysis of glutamine to glutamate and ammonia. […] Drugs that block glutamate dehydrogenase (GDH) activity were also examined. There were no effects of a GDH inhibitor, 50 μM of Epigallocatechin gallate (EGCG), in glutamine uptake. Moreover, SIRT4 overexpression could no longer inhibit glutamine uptake and ammonia production when GLS1 was targeted using short hairpin RNA (shRNA) (FIG. 13b, c). Finally, cells were treated with chemical inhibitors of mitochondrial glutaminolysis in order to probe the model that suppressing this node could block the repression of glutamine uptake by DNA damage.

SIRT4 KO cells = assay: Glutamine uptake of SIRT4 KO cells with glutaminolysis inhibitors; conditions: for glutamine uptake: 10 μM BPTES, 50 μM EGCG
Protocol: as §1

SIRT4 = SIRT4 expression level after genotoxic stress, HEK293T cells; conditions: 14 μM CPT, 25 μM ETS, 48 μM tunicamycin
From the text: The relationship between sirtuin expression and DNA damage was next investigated.

HepG2 cells [2] = assay: Relative ATP/ADP ratio of HepG2 cells stably expressing human SIRT4 or SIRT4 mutant; conditions: CPT (14 μM) + oligomycin (5 g/ml) for 18 hours
Protocol: The relationship between SIRT4 and mitochondrial metabolism was next investigated. The relative ATP/ADP ratio of HepG2 cells that stably expressed human SIRT4 or SIRT4 mutant was measured following treatment with DMSO, CPT (14 μM) or CPT+oligomycin ([…]) for 18 hours.

SIRT4 protein [3] = assay: SIRT4 protein expression by western blot, HEK293T cells
SIRT4 protein [4] = assay: SIRT4 protein expression by western blot, MEF cells
MEF cells = assay: Metabolite levels in culture media (BioProfile FLEX analyzer), MEF cells; conditions: 14 μM for 12 hours
Protocol: (§2) The relationship between glutamine metabolism and DNA damage was investigated. HepG2 cells and MEF cells were treated with either 14 μM camptothecin (CPT) for 12 hours or 50 J/m^2 ultra-violet (UV) radiation, both of which are known to induce DNA damage in cells. Glucose, glutamine, lactate and ammonia (NH4^+) levels in culture media were measured using the BioProfile FLEX analyzer (Nova Biomedical) according to the manufacturer's instructions.

HepG2 cells [5] = assay: Metabolite levels in culture media (BioProfile FLEX analyzer), HepG2 cells; conditions: 14 μM for 12 hours
Protocol: as §2

## O=C(Cc1ccccc1)Nc1nnc(CCSCCc2nnc(NC(=O)Cc3ccccc3)s2)s1 [BPTES, bis-2-(5-phenylacetoamido-1,2,4-thiadiazol-2-yl)ethyl sulfide]
SIRT4 KO MEFs
  increased proliferation of KO cells: completely abrogated
HeLa cells
  proliferation of control and SIRT4-expressing cells: proliferated at similar rates
[1]
  repression of glutamine uptake by UV treatment: could no longer repress glutamine uptake
SIRT4 KO cells; 10 μM
  increased glutamine consumption of SIRT4 KO cells: rescued
SIRT4 KO cells
  glutamine uptake: repressed glutamine uptake

## tunicamycin
SIRT4
  level of SIRT4 expression versus length of exposure: correlated with the length of time

## CC[C@H]1/C=C/C=C/C[C@@H](C)[C@H](O)[C@@](C)(O)C(=O)[C@@H](C)[C@H](O)[C@@H](C)C(=O)[C@@H](C)[C@H](O)[C@@H](C)/C=C/C(=O)O[C@@H]2[C@H](C)[C@H](CC1)O[C@]1(CC[C@H](C)[C@H](C[C@@H](C)O)O1)[C@H]2C [oligomycin]
HepG2 cells [2]
  difference in ATP/ADP ratio between SIRT4 and mutant SIRT4 over-expressing cells after CPT: difference disappeared

## COc1cc([C@@H]2c3cc4c(cc3[C@@H](O[C@@H]3O[C@@H]5CO[C@@H](C)O[C@H]5[C@H](O)[C@H]3O)[C@H]3COC(=O)[C@H]23)OCO4)cc(OC)c1O [ETS, etoposide]
SIRT4 protein [3]
  SIRT4 protein expression: increased SIRT4 protein expression
SIRT4 protein [4]
  SIRT4 protein expression: increased SIRT4 protein expression

## CC[C@@]1(O)C(=O)OCc2c1cc1n(c2=O)Cc2cc3ccccc3nc2-1 [CPT, camptothecin]
MEF cells
  NH4+ production: significant reductions
  glutamine consumption: significant reductions
SIRT4 protein [3]
  SIRT4 protein expression: increased SIRT4 protein expression
SIRT4 protein [4]
  SIRT4 protein expression: increased SIRT4 protein expression
SIRT4
  level of SIRT4 expression versus length of exposure: correlated with the length of time
HepG2 cells [5]
  NH4+ production: significant reductions
  glutamine consumption: significant reductions

## O=C(O[C@@H]1Cc2c(O)cc(O)cc2O[C@@H]1c1cc(O)c(O)c(O)c1)c1cc(O)c(O)c(O)c1 [EGCG, Epigallocatechin gallate]
SIRT4 KO cells
  glutamine uptake: no effects

Source: patent publication US20140186325A1, “Methods of Cancer Treatment and Prevention Through the Modulation of SIRT4 Activity” (President and Fellows of Harvard College, priority 2011, published 2014)
